From ChEMBL document CHEMBL1201862, “PubChem BioAssay data set” (2004)
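48-hour exposure; five concentrations; linearly interpolated endpoints. The concentration for 50% growth inhibition is given as GI50.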 Active and inactive are the calls of the source. Cut-off read from the data, not from the text of the source: active = GI50 up to about 1.1 µM and inactive = higher.

Legend:
Experiment in all cases: NCI-60 cell line screen, 48 h
OVCAR-3 = system: OVCAR-3
CAKI-1 = system: CAKI-1
M14 = system: M14
COLO 205 = system: COLO 205
UACC-62 = system: UACC-62
Malme-3M = system: Malme-3M
HT-29 = system: HT-29
HCT-116 = system: HCT-116
OVCAR-8 = system: OVCAR-8
SK-MEL-5 = system: SK-MEL-5
IGROV-1 = system: IGROV-1
SNB-19 = system: SNB-19
RPMI-8226 = system: RPMI-8226
K562 = system: K562
OVCAR-4 = system: OVCAR-4
LOX IMVI = system: LOX IMVI
U-251 = system: U-251
NCI-H460 = system: NCI-H460
OVCAR-5 = system: OVCAR-5

Measured: GI50

O=C1COc2cc3c(cc2N1)SCC(=O)N3
inactive: OVCAR-3 > 100 µM | CAKI-1 > 100 µM | M14 > 100 µM | COLO 205 > 100 µM | UACC-62 > 100 µM | Malme-3M > 100 µM | HT-29 > 100 µM | HCT-116 > 100 µM | OVCAR-8 > 100 µM | SK-MEL-5 > 100 µM | IGROV-1 > 100 µM | SNB-19 > 100 µM | RPMI-8226 > 100 µM | K562 > 100 µM | OVCAR-4 > 100 µM

COc1cccc(NC(=O)CSc2nnc(-c3ccc(/N=C\c4ccc(Cl)cc4)cc3)o2)c1
inactive: M14 19.4 µM | COLO 205 19.4 µM | LOX IMVI 20.2 µM | UACC-62 14.3 µM | U-251 17.1 µM | Malme-3M 17.7 µM | HT-29 15.6 µM | HCT-116 17.2 µM | OVCAR-8 24.4 µM | SK-MEL-5 18.6 µM | SNB-19 19.5 µM | RPMI-8226 18.2 µM | K562 32.6 µM | OVCAR-4 37.4 µM | NCI-H460 20.1 µM

CCCC/C=C/C1Cc2ccccc2CN1S(=O)(=O)c1ccc(C)cc1 (centres undefined)
inactive: OVCAR-3 9.57 µM | M14 11.4 µM | COLO 205 7.29 µM | OVCAR-5 12.5 µM | LOX IMVI 8.34 µM | UACC-62 12.7 µM | U-251 11.2 µM | Malme-3M 6.67 µM | HT-29 7.8 µM | HCT-116 1.6 µM | OVCAR-8 11.3 µM | SK-MEL-5 3.28 µM | IGROV-1 12.3 µM | SNB-19 24.2 µM | RPMI-8226 2.07 µM | K562 3.64 µM | OVCAR-4 5.85 µM | NCI-H460 12.7 µM

CC(=O)Oc1cc2c(n(C)c1=O)CCC2
inactive: CAKI-1 > 100 µM | M14 > 100 µM | COLO 205 > 100 µM | OVCAR-5 > 100 µM | LOX IMVI 96.4 µM | U-251 > 100 µM | Malme-3M > 100 µM | HT-29 > 100 µM | HCT-116 > 100 µM | OVCAR-8 94.4 µM | SK-MEL-5 > 100 µM | IGROV-1 > 100 µM | SNB-19 > 100 µM | K562 > 100 µM | OVCAR-4 > 100 µM | NCI-H460 > 100 µM

CNC1=C(C)C(=O)C(C)=C(C(C)(C)CC(=O)n2cc(F)c(=O)[nH]c2=O)C1=O
inactive: OVCAR-3 38.5 µM | CAKI-1 22.8 µM | M14 48.1 µM | COLO 205 23.6 µM | OVCAR-5 > 100 µM | LOX IMVI 71 µM | UACC-62 45.4 µM | U-251 > 75.9 µM | Malme-3M > 43.1 µM | HT-29 12.5 µM | HCT-116 8.2 µM | OVCAR-8 31.6 µM | SK-MEL-5 12.3 µM | IGROV-1 67 µM | SNB-19 > 65.8 µM | RPMI-8226 6.81 µM | K562 32 µM | NCI-H460 2.99 µM

NCC1(N2CCOCC2)C2CCCC21CO (centres undefined)
inactive: OVCAR-3 > 100 µM | CAKI-1 > 100 µM | M14 > 100 µM | COLO 205 > 100 µM | OVCAR-5 > 100 µM | U-251 > 100 µM | Malme-3M > 100 µM | HT-29 > 100 µM | HCT-116 > 100 µM | OVCAR-8 > 100 µM | SK-MEL-5 > 100 µM | IGROV-1 > 100 µM | SNB-19 > 100 µM | RPMI-8226 > 100 µM | K562 > 100 µM | OVCAR-4 > 100 µM | NCI-H460 > 100 µM

CCOc1cc2ccc3c4cc(OC)c(OC)cc4cnc3c2cc1OCC
inactive: OVCAR-3 > 100 µM | CAKI-1 > 100 µM | M14 > 100 µM | COLO 205 > 100 µM | OVCAR-5 > 100 µM | UACC-62 > 100 µM | U-251 > 100 µM | Malme-3M > 100 µM | HT-29 > 100 µM | HCT-116 > 100 µM | OVCAR-8 > 100 µM | SK-MEL-5 > 100 µM | IGROV-1 > 100 µM | SNB-19 > 100 µM | RPMI-8226 > 100 µM | K562 > 100 µM | OVCAR-4 > 100 µM | NCI-H460 > 100 µM

Cn1cc2ccccc2c1-c1nc(F)nc(Oc2ccc3c(c2)CC[C@@H]2C3CC[C@]3(C)C(O)CCC23)n1 (some centres undefined)
inactive: OVCAR-3 17.7 µM | CAKI-1 > 10 µM | M14 15.9 µM | COLO 205 22.3 µM | OVCAR-5 18.6 µM | LOX IMVI 15.8 µM | U-251 12 µM | Malme-3M 18.3 µM | HCT-116 17.5 µM | OVCAR-8 17.4 µM | SK-MEL-5 15 µM | IGROV-1 13.7 µM | SNB-19 18.7 µM | K562 29.2 µM | OVCAR-4 14.2 µM

COC(=O)C(=O)C(C(=O)C(=O)Nc1ccccc1C(N)=O)c1nc2ccc(C(=O)c3ccccc3)cc2nc1O (centres undefined)
inactive: CAKI-1 25.9 µM | M14 > 100 µM | COLO 205 > 100 µM | OVCAR-5 > 100 µM | UACC-62 27.6 µM | U-251 > 100 µM | Malme-3M > 100 µM | HT-29 > 100 µM | HCT-116 > 100 µM | OVCAR-8 > 100 µM | SK-MEL-5 52.6 µM | IGROV-1 > 100 µM | SNB-19 > 100 µM | RPMI-8226 > 100 µM | K562 42.6 µM | OVCAR-4 > 100 µM | NCI-H460 > 100 µM

Nc1ccc(C(=O)CC2(O)C(=O)Nc3c(Cl)cc(Cl)cc32)cc1 (centres undefined)
inactive: OVCAR-3 > 100 µM | M14 > 100 µM | COLO 205 > 100 µM | OVCAR-5 > 100 µM | LOX IMVI 34.5 µM | U-251 27.2 µM | Malme-3M > 100 µM | HT-29 > 100 µM | HCT-116 66.7 µM | OVCAR-8 > 100 µM | SNB-19 > 100 µM | RPMI-8226 50.9 µM | K562 40.1 µM | OVCAR-4 > 100 µM | NCI-H460 > 100 µM

Oc1ccc(Cl)cc1C1=NC(NCNC2=NC(c3ccccc3)CC(c3cc(Cl)ccc3O)=N2)=NC(c2ccccc2)C1 (centres undefined)
inactive: OVCAR-3 60.1 µM | CAKI-1 94.2 µM | M14 > 100 µM | COLO 205 > 100 µM | OVCAR-5 44.1 µM | LOX IMVI > 100 µM | UACC-62 > 100 µM | U-251 > 100 µM | HT-29 70.8 µM | HCT-116 56 µM | OVCAR-8 > 100 µM | SK-MEL-5 > 100 µM | IGROV-1 61.2 µM | SNB-19 > 100 µM | RPMI-8226 63.4 µM | K562 39 µM | OVCAR-4 64.1 µM | NCI-H460 87.1 µM

COC(=O)Cc1c([C@@H]2Nc3ccccc3[C@H]2CC(=O)OC)[nH]c2ccccc12
inactive: OVCAR-3 18.3 µM | CAKI-1 47.2 µM | COLO 205 16 µM | OVCAR-5 27.8 µM | LOX IMVI 21.6 µM | UACC-62 13.9 µM | U-251 20.4 µM | HT-29 48.5 µM | HCT-116 38.9 µM | OVCAR-8 33.7 µM | SK-MEL-5 7.98 µM | IGROV-1 9.79 µM | SNB-19 55.6 µM | RPMI-8226 14.9 µM | K562 11 µM | OVCAR-4 23 µM | NCI-H460 21.1 µM
